Reference: ChEMBL document CHEMBL4017479, “Design, synthesis and anticancer activity of novel nopinone-based thiosemicarbazone derivatives” (Bioorg Med Chem Lett, 2017)

Columns and labels:
[1] = Cytotoxicity against HLF1 cells after 72 hrs by MTT assay; format: functional, cell-based; settings: Homo sapiens, HLF1, 72 h
SMMC-7721 = assay: Cytotoxicity against human SMMC7721 cells after 72 hrs by MTT assay; format: functional, cell-based; settings: SMMC-7721, 72 h
MDA-MB-231 = assay: cells; settings: Homo sapiens, MDA-MB-231, 72 h
Description: Cytotoxicity against human MDA-MB-231 cells after 72 hrs by MTT assay

HeLa = assay: cells; settings: Homo sapiens, 72 h
Description: Cytotoxicity against human HeLa cells after 72 hrs by MTT assay

IC50 (MDA-MB-231): 29.3 µM
IC50 (HeLa): 7.89 µM
Compound: COc1cc([C@@H]2c3cc4c(cc3[C@@H](O[C@@H]3O[C@@H]5CO[C@@H](C)O[C@H]5[C@H](O)[C@H]3O)[C@H]3COC(=O)[C@H]23)OCO4)cc(OC)c1O [ETOPOSIDE]
IC50 [1]: > 40 µM
IC50 (SMMC-7721): 40.4 µM
